From US4879273A (The Rockefeller University, priority 1987, dated 1989)
Where no end group is shown, it is not given here.

What was measured:
adenylate cyclase [1] = details: relative to glucagon = 100; liver membranes
Protocol: Adenylate Cyclase Assay. The assay on liver membranes was performed according to Salomon et al. [Salomon, Y., Londos, C. & Rodbell, M. Anal. Biochem. 58, 541,548 (1974)]. The released cAMP was mixed with [8-^3 H]cAMP measured with a high affinity cAMP binding protein.
The purpose of the adenylate cyclase assays is to measure the ability of the compound under test to stimulate the activity of adenylate cyclase. The assays are used to measure relative potency, maximum activity and inhibition index.
The inhibition index, defined above, was determined from adenylate cyclase assays by two different protocols.
2. […] Increasing amounts of antagonist were then added and the concentration that reduced the response to 45% of maximum was determined.

adenylate cyclase [2] = details: prior-art antagonist; cited from earlier work
hepatocyte membrane = details: prior-art antagonist; cited from earlier work
glucagon receptor = details: prior-art antagonist; cited from earlier work

| Compound | ADENYL CYCLASE ASSAYS Rel. Potency (adenylate cyclase [1]) | activation of adenylate cyclase (in words) (adenylate cyclase [2]) | activation of another binding system leading to inositol triphosphate and calcium ions (in words) (hepatocyte membrane) | binding to the glucagon receptor (in words) (glucagon receptor) |
| --- | --- | --- | --- | --- |
| CSCC[C@H](NC(=O)[C@H](CC(C)C)NC(=O)[C@H](Cc1c[nH]c2ccccc12)NC(=O)[C@H](CCC(N)=O)NC(=O)[C@@H](NC(=O)[C@H](Cc1ccccc1)NC(=O)[C@H](CC(=O)O)NC(=O)[C@H](CCC(N)=O)NC(=O)[C@H](C)NC(=O)[C@H](CCCNC(=N)N)NC(=O)[C@H](CCCNC(=N)N)NC(=O)[C@H](CO)NC(=O)[C@H](CC(=O)O)NC(=O)[C@H](CC(C)C)NC(=O)[C@H](Cc1ccc(O)cc1)NC(=O)[C@H](CCCCN)NC(=O)[C@H](CO)NC(=O)[C@H](Cc1ccc(O)cc1)NC(=O)[C@H](CCC(=O)O)NC(=O)[C@H](CO)NC(=O)[C@@H](NC(=O)[C@H](Cc1ccccc1)NC(=O)[C@@H](NC(=O)CNC(=O)[C@H](CCC(N)=O)NC(=O)[C@@H](N)CO)[C@@H](C)O)[C@@H](C)O)C(C)C)C(=O)N[C@@H](CC(N)=O)C(=O)N[C@H](C(=O)O)[C@@H](C)O [Compound 1, des-His^1-[Glu^9] glucagon] | < 0.0008 | – | – | – |
| CSCC[C@H](NC(=O)[C@H](CC(C)C)NC(=O)[C@H](Cc1c[nH]c2ccccc12)NC(=O)[C@H](CCC(N)=O)NC(=O)[C@@H](NC(=O)[C@H](Cc1ccccc1)NC(=O)[C@H](CC(=O)O)NC(=O)[C@H](CCC(N)=O)NC(=O)[C@H](C)NC(=O)[C@H](CCCNC(=N)N)NC(=O)[C@H](CCCNC(=N)N)NC(=O)[C@H](CO)NC(=O)[C@H](CC(=O)O)NC(=O)[C@H](CC(C)C)NC(=O)[C@H](Cc1ccc(O)cc1)NC(=O)[C@H](CCCCN)NC(=O)[C@H](CO)NC(=O)[C@H](Cc1ccc(O)cc1)NC(=O)[C@H](CCC(=O)O)NC(=O)[C@H](CO)NC(=O)[C@@H](NC(=O)[C@H](Cc1ccccc1)NC(=O)[C@@H](NC(=O)CNC(=O)[C@H](CCC(N)=O)NC(=O)[C@@H](N)CO)[C@@H](C)O)[C@@H](C)O)C(C)C)C(=O)N[C@@H](CC(N)=O)C(=O)N[C@H](C(N)=O)[C@@H](C)O [Compound 2, des-His^1-[Glu^9] glucagon amide] | < 0.0001 | – | – | – |
| SQGTFTSEYSKYLDSKKAQEFVQWLMNT [Compound 3, des-His^1-[Glu^9 -Lys^17,18 Glu^21] glucagon] | 0.0001 | – | – | – |
| Nα- trinitrophenyl [12-homoarginine] glucagon | – | without significant activation | activates another binding system | does bind to the glucagon receptor |
